Legend:
Assay type in all cases: functional, cell-based
[1] = system: HCT-116; test: Antiproliferative activity against human HCT-116 cells after 48 hrs by MTT assay; conditions: HCT-116, 48 h
[2] = system: MCF7; test: Antiproliferative activity against human MCF7 cells after 48 hrs by MTT assay; conditions: MCF7, 48 h
[3] = system: HepG2; test: Antiproliferative activity against human HepG2 cells after 48 hrs by MTT assay; conditions: HepG2, 48 h
[4] = system: HeLa; test: Antiproliferative activity against human HeLa cells after 48 hrs by MTT assay

| Compound | IC50 [1] | IC50 [2] | IC50 [3] | IC50 [4] |
| --- | --- | --- | --- | --- |
| CC(=O)[C@]1(O)CC[C@@]2(O)[C@]1(C)[C@H](OC(=O)c1ccc(O)cc1)C[C@@H]1[C@@]3(C)CC[C@H](O)CC3=CC[C@]12O | 73 µM | 83.1 µM | 79.1 µM | > 100 µM |
| CC(=O)[C@]1(O)CC[C@@]2(O)[C@]1(C)[C@H](OC(=O)/C=C(\C)C(C)C)C[C@@H]1[C@@]3(C)CC[C@H](O[C@@H]4OC[C@H](O)[C@H](O)[C@H]4O)CC3=CC[C@]12O | > 100 µM | > 100 µM | 87.5 µM | > 100 µM |
| CC(=O)O[C@@H]1[C@@H](OC(C)=O)[C@H](O[C@H]2CC[C@@]3(C)C(=CC[C@]4(O)[C@@H]3C[C@@H](OC(=O)c3ccc(O)cc3)[C@@]3(C)[C@]4(O)CC[C@@]3(O)C(C)=O)C2)OC[C@H]1OC(C)=O | 35.3 µM | 55.4 µM | 28.5 µM | 60.8 µM |
| CC(=O)O[C@@H]1[C@@H](OC(C)=O)[C@H](O[C@H]2CC[C@@]3(C)C(=CC[C@]4(O)[C@@H]3C[C@@H](OC(=O)/C=C(\C)C(C)C)[C@@]3(C)[C@]4(O)CC[C@@]3(O)C(C)=O)C2)OC[C@@H]1OC(C)=O | 23.8 µM | 43.1 µM | 23.6 µM | 33.6 µM |
| CC(=O)O[C@@H]1[C@@H](O[C@H]2CC[C@@]3(C)C(=CC[C@]4(O)[C@@H]3C[C@@H](OC(=O)/C=C(\C)C(C)C)[C@@]3(C)[C@]4(O)CC[C@@]3(O)C(C)=O)C2)OC[C@@H](OC(C)=O)[C@H]1OC(C)=O | 29.6 µM | 52.6 µM | 52.8 µM | 60.5 µM |
| CC(=O)OC[C@H]1O[C@@H](O[C@H]2CC[C@@]3(C)C(=CC[C@]4(O)[C@@H]3C[C@@H](OC(=O)c3ccc(O)cc3)[C@@]3(C)[C@]4(O)CC[C@@]3(O)C(C)=O)C2)[C@H](OC(C)=O)[C@@H](OC(C)=O)[C@@H]1OC(C)=O | 66.2 µM | 90.9 µM | 74.5 µM | 95.8 µM |
| CC(=O)[C@]1(O)CC[C@@]2(O)[C@]1(C)[C@H](OC(=O)c1ccc(O)cc1)C[C@@H]1[C@@]3(C)CC[C@H](O[C@@H]4O[C@H](CO)[C@H](O)[C@H](O)[C@H]4O)CC3=CC[C@]12O | 27.3 µM | 20.9 µM | 23.7 µM | 25.1 µM |
| CC(=O)OC[C@H]1O[C@H](O[C@H]2CC[C@@]3(C)C(=CC[C@]4(O)[C@@H]3C[C@@H](OC(=O)/C=C(\C)C(C)C)[C@@]3(C)[C@]4(O)CC[C@@]3(O)C(C)=O)C2)[C@@H](OC(C)=O)[C@@H](OC(C)=O)[C@@H]1OC(C)=O | 15.6 µM | 42.7 µM | 23.7 µM | 70.2 µM |
| CC(=O)OC[C@H]1O[C@@H](O[C@H]2CC[C@@]3(C)C(=CC[C@]4(O)[C@@H]3C[C@@H](OC(=O)/C=C/c3ccccc3)[C@@]3(C)[C@]4(O)CC[C@@]3(O)[C@H](C)OC(=O)c3cccnc3)C2)[C@H](OC(C)=O)[C@@H](OC(C)=O)[C@@H]1OC(C)=O | 36.1 µM | 82.8 µM | 26.4 µM | 79.6 µM |
| CC(=O)OC[C@H]1O[C@@H](O[C@H]2CC[C@@]3(C)C(=CC[C@]4(O)[C@@H]3C[C@@H](OC(=O)/C=C(\C)C(C)C)[C@@]3(C)[C@]4(O)CC[C@@]3(O)C(C)=O)C2)[C@H](OC(C)=O)[C@@H](OC(C)=O)[C@@H]1OC(C)=O | 26.6 µM | 93.4 µM | 65.8 µM | > 100 µM |
| CC(=O)O[C@H]1[C@H](OC(C)=O)[C@@H](O[C@H]2CC[C@@]3(C)C(=CC[C@]4(O)[C@@H]3C[C@@H](OC(=O)/C=C(\C)C(C)C)[C@@]3(C)[C@]4(O)CC[C@@]3(O)C(C)=O)C2)O[C@@H](C)[C@H]1OC(C)=O | 18.4 µM | 31.5 µM | 18.9 µM | 31.7 µM |
| CC(=O)[C@]1(O)CC[C@@]2(O)[C@]1(C)[C@H](OC(=O)/C=C(\C)C(C)C)C[C@@H]1[C@@]3(C)CC[C@H](O[C@@H]4OC[C@@H](O)[C@H](O)[C@H]4O)CC3=CC[C@]12O | 90.9 µM | 95.9 µM | 90.9 µM | > 100 µM |
| CC(=O)[C@]1(O)CC[C@@]2(O)[C@]1(C)[C@H](OC(=O)/C=C(\C)C(C)C)C[C@@H]1[C@@]3(C)CC[C@H](O[C@H]4C[C@H](O)[C@H](O)CO4)CC3=CC[C@]12O | 36.8 µM | 93 µM | 39.8 µM | 86.5 µM |
| CC(=O)OC[C@H]1O[C@@H](O[C@H]2CC[C@@]3(C)C(=CC[C@]4(O)[C@@H]3C[C@@H](OC(=O)/C=C/c3ccccc3)[C@@]3(C)[C@]4(O)CC[C@@]3(O)[C@H](C)OC(=O)c3cccnc3)C2)[C@H](OC(C)=O)[C@@H](OC(C)=O)[C@H]1OC(C)=O | 7.11 µM | 24.5 µM | 8.49 µM | 20.7 µM |
| CC(=O)[C@]1(O)CC[C@@]2(O)[C@]1(C)[C@H](OC(=O)c1ccc(O)cc1)C[C@@H]1[C@@]3(C)CC[C@H](O[C@@H]4O[C@H](CO)[C@@H](O)[C@H](O)[C@H]4O)CC3=CC[C@]12O | 75.1 µM | 92.6 µM | 65.3 µM | 95.5 µM |
| CC(=O)[C@]1(O)CC[C@@]2(O)[C@]1(C)[C@H](OC(=O)c1ccc(O)cc1)C[C@@H]1[C@@]3(C)CC[C@H](O[C@@H]4O[C@@H](C)[C@H](O)[C@@H](O)[C@H]4O)CC3=CC[C@]12O | 60.3 µM | 88.5 µM | 54.6 µM | 91.3 µM |
| CC(=O)O[C@@H]1[C@@H](OC(C)=O)[C@H](C)O[C@@H](O[C@H]2CC[C@@]3(C)C(=CC[C@]4(O)[C@@H]3C[C@@H](OC(=O)c3ccc(O)cc3)[C@@]3(C)[C@]4(O)CC[C@@]3(O)C(C)=O)C2)[C@@H]1OC(C)=O | 48.7 µM | 53.6 µM | 41.4 µM | 57.1 µM |
| CC(=O)OC[C@H]1O[C@@H](O[C@H]2CC[C@@]3(C)C(=CC[C@]4(O)[C@@H]3C[C@@H](OC(=O)c3ccc(O)cc3)[C@@]3(C)[C@]4(O)CC[C@@]3(O)C(C)=O)C2)[C@H](OC(C)=O)[C@@H](OC(C)=O)[C@H]1OC(C)=O | 9.32 µM | 20.8 µM | 9.9 µM | 22.8 µM |
| CC(=O)O[C@H]1C[C@H](O[C@H]2CC[C@@]3(C)C(=CC[C@]4(O)[C@@H]3C[C@@H](OC(=O)/C=C(\C)C(C)C)[C@@]3(C)[C@]4(O)CC[C@@]3(O)C(C)=O)C2)OC[C@H]1OC(C)=O | 31.6 µM | 26.2 µM | 14.1 µM | 43.8 µM |
| CC(=O)N[C@H]1[C@H](O[C@H]2CC[C@@]3(C)C(=CC[C@]4(O)[C@@H]3C[C@@H](OC(=O)/C=C(\C)C(C)C)[C@@]3(C)[C@]4(O)CC[C@@]3(O)C(C)=O)C2)O[C@H](COC(C)=O)[C@@H](OC(C)=O)[C@@H]1OC(C)=O | 17.3 µM | 21.1 µM | 5.5 µM | 23.8 µM |
| CC(=O)[C@]1(O)CC[C@@]2(O)[C@]1(C)[C@H](OC(=O)/C=C(\C)C(C)C)C[C@@H]1[C@@]3(C)CC[C@H](O[C@H]4OC[C@H](O)[C@H](O)[C@@H]4O)CC3=CC[C@]12O | 72.1 µM | > 100 µM | 51.8 µM | > 100 µM |
| CC(=O)O[C@@H]1[C@@H](OC(C)=O)[C@H](O[C@H]2CC[C@@]3(C)C(=CC[C@]4(O)[C@@H]3C[C@@H](OC(=O)/C=C(\C)C(C)C)[C@@]3(C)[C@]4(O)CC[C@@]3(O)C(C)=O)C2)OC[C@H]1OC(C)=O | 34.9 µM | 50.4 µM | 42.6 µM | 85.3 µM |
| CC(=O)O[C@@H]1[C@@H](O[C@H]2CC[C@@]3(C)C(=CC[C@]4(O)[C@@H]3C[C@@H](OC(=O)/C=C(\C)C(C)C)[C@@]3(C)[C@]4(O)CC[C@@]3(O)C(C)=O)C2)OC[C@H](OC(C)=O)[C@H]1OC(C)=O | 12 µM | 47 µM | 15.8 µM | 28.1 µM |
| CC(=O)O[C@@H]1[C@@H](OC(C)=O)[C@H](C)O[C@@H](O[C@H]2CC[C@@]3(C)C(=CC[C@]4(O)[C@@H]3C[C@@H](OC(=O)/C=C(\C)C(C)C)[C@@]3(C)[C@]4(O)CC[C@@]3(O)C(C)=O)C2)[C@@H]1OC(C)=O | 26.1 µM | 95 µM | 72.8 µM | > 100 µM |
| CC(=O)OC[C@H]1O[C@@H](O[C@H]2CC[C@@]3(C)C(=CC[C@]4(O)[C@@H]3C[C@@H](OC(=O)/C=C(\C)C(C)C)[C@@]3(C)[C@]4(O)CC[C@@]3(O)C(C)=O)C2)[C@H](OC(C)=O)[C@@H](OC(C)=O)[C@H]1OC(C)=O | 7.41 µM | 16.9 µM | 9.7 µM | 24.8 µM |
| CC(=O)O[C@@H]1[C@@H](O[C@H]2CC[C@@]3(C)C(=CC[C@]4(O)[C@@H]3C[C@@H](OC(=O)/C=C(\C)C(C)C)[C@@]3(C)[C@]4(O)CC[C@@]3(O)C(C)=O)C2)OC[C@H](OC(C)=O)[C@@H]1OC(C)=O | 15.9 µM | 24.5 µM | 6.85 µM | 18.1 µM |
| CC(=O)O[C@@H]1[C@@H](OC(C)=O)[C@H](O[C@H]2CC[C@@]3(C)C(=CC[C@]4(O)[C@@H]3C[C@@H](OC(=O)/C=C/c3ccccc3)[C@@]3(C)[C@]4(O)CC[C@@]3(O)[C@H](C)OC(=O)c3cccnc3)C2)OC[C@H]1OC(C)=O | 63.6 µM | > 100 µM | 70.1 µM | > 100 µM |
| CC(=O)O[C@H]1[C@H](O[C@H]2CC[C@@]3(C)C(=CC[C@]4(O)[C@@H]3C[C@@H](OC(=O)/C=C(\C)C(C)C)[C@@]3(C)[C@]4(O)CC[C@@]3(O)C(C)=O)C2)OC[C@@H](OC(C)=O)[C@H]1OC(C)=O | 52.1 µM | 61.1 µM | 30.8 µM | 58.7 µM |
| CC(=O)O[C@H]1[C@@H](OC(C)=O)[C@@H](C)O[C@@H](O[C@H]2CC[C@@]3(C)C(=CC[C@]4(O)[C@@H]3C[C@@H](OC(=O)/C=C(\C)C(C)C)[C@@]3(C)[C@]4(O)CC[C@@]3(O)C(C)=O)C2)[C@@H]1OC(C)=O | 20.3 µM | 38.3 µM | 23.8 µM | 44.3 µM |
| COc1cc2c(c(OC)c1OC)-c1ccc(OC)c(=O)cc1[C@@H](NC(C)=O)CC2 [COLCHICINE] | 0.046 µM | 0.028 µM | 0.064 µM |  |
